Test results taken from US20120329787A1, “FUNGICIDAL PYRANONES AND OXAZINONES” (E.I. DU PONT DE NEMOURS AND COMPANY, priority 2011, published 2012).
Marks after values point to notes of the source that are not given here.

How the values were obtained:
Assay type in all cases: in vivo
[1] = tested on: Puccinia recondita f. sp. tritici; test: Test H: wheat leaf rust, spray on wheat seedlings the day before inoculation; conditions: 200 ppm test suspension, sprayed before inoculation
Method in brief: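 Wheat seedlings sprayed to run-off with compound suspensions (acetone/water with surfactant; 200 ppm ≈ 500 g/ha, or 40 ppm), inoculated next day with rust spores. Plants kept 24 h in saturated atmosphere at 20 °C, then 6 days in a 20 °C growth chamber before visual disease rating.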

Botrytis cinerea = test: Test A: tomato Botrytis, spray on tomato seedlings the day before inoculation; conditions: 200 ppm test suspension
Method in brief: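 Tomato seedlings sprayed to run-off with compound suspension (200 ppm, ≈500 g/ha; some at 40 ppm) in acetone/water with 250 ppm Trem 014, inoculated next day with Botrytis cinerea spores. Held 48 h saturated at 20 °C, then 3 days at 24 °C; disease rated visually.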

Phytophthora infestans = conditions: 200 ppm test suspension; tomato seedlings
[2] = tested on: Erysiphe graminis f. sp. tritici; test: Test I: wheat powdery mildew, spray on wheat seedlings the day before inoculation; conditions: 200 ppm test suspension
Method in brief: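 Wheat seedlings sprayed to run-off with compound at 200 ppm (40 ppm where marked; 200 ppm ≈ 500 g/ha) in acetone/water with 250 ppm surfactant. Inoculated next day with E. graminis spore dust; visual disease rating after 7 days at 20° C.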

Septoria nodorum = test: Test E: Septoria glume blotch, spray on wheat seedlings the day before inoculation; conditions: 200 ppm test suspension
Method in brief: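 Compounds in acetone/water (50/50) with 250 ppm Trem 014 surfactant, sprayed to run-off on wheat seedlings the day before Septoria nodorum inoculation. Tested at 200 ppm (equivalent to 500 g/ha) unless marked 40 ppm.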

Rhizoctonia solani = test: Test D: turf brown patch, spray on creeping bent grass seedlings the day before inoculation; conditions: 200 ppm test suspension
From the text: General protocol for preparing test suspensions for Tests A-I: the test compounds were first dissolved in acetone in an amount equal to 3% of the final volume and then suspended at the desired concentration (in ppm) in acetone and purified water (50/50 mix by volume) containing 250 ppm of the surfactant Trem® 014 (polyhydric alcohol esters). The resulting test suspensions were then used in Tests A-I. Spraying a 200 ppm test suspension to the point of run-off on the test plants was the equivalent of a rate of 500 g/ha. […] (An asterisk “*” next to the rating value indicates a 40 ppm test suspension was used.) The test suspension was sprayed to the point of run-off on creeping bent grass (Agrostis sp.) seedlings. The following day, the seedlings were inoculated with a bran and mycelial slurry of Rhizoctonia solani (the causal agent of turf brown patch) and incubated in a saturated atmosphere at 27° C. for 48 h, and then moved to a growth chamber at 27° C. for 3 days, after which time disease ratings were made. […] A dash (-) indicates no test results. All results are for 200 ppm except where followed by an asterisk “*”, which indicates a 40 ppm.

Alternaria solani = test: Test B: tomato early blight, spray on tomato seedlings the day before inoculation
Method in brief: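 Tomato seedlings sprayed to run-off with 200 ppm suspension (40 ppm where asterisked), inoculated next day with Alternaria solani spores. Kept 48 h at 27 °C in saturated atmosphere, then 5 days at 20 °C before visual disease rating.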

[3] = tested on: Puccinia recondita f. sp. tritici; test: Test G: wheat leaf rust, spray on wheat seedlings after inoculation (curative); conditions: 200 ppm test suspension, sprayed after inoculation
Method in brief: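 Curative test: wheat seedlings inoculated with P. recondita spores, held 24 h saturated at 20 °C then 2 days at 20 °C, then sprayed to run-off with compound suspension (200 ppm ≈ 500 g/ha; asterisk = 40 ppm) in acetone/water with 250 ppm surfactant. Visual disease rating after 4 further days at 20 °C.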

Septoria tritici = test: Test F: wheat leaf blotch, spray on wheat seedlings the day before inoculation; conditions: 200 ppm test suspension
Method in brief: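 Wheat seedlings sprayed to run-off with 200 ppm (≈500 g/ha) or 40 ppm suspension in acetone/water with 250 ppm Trem 014. Next day inoculated with Septoria tritici spores, held 48 h saturated at 24° C, then 19 days at 20° C before visual disease rating.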

| Structure (SMILES) | Test H rating (100 = 100% disease control, 0 = no disease control) [1] [%] | Test A rating (100 = 100% disease control, 0 = no disease control) (Botrytis cinerea) [%] | Test C rating (100 = 100% disease control, 0 = no disease control) (Phytophthora infestans) [%] | Test I rating (100 = 100% disease control, 0 = no disease control) [2] [%] | Test E rating (100 = 100% disease control, 0 = no disease control) (Septoria nodorum) [%] | Test D rating (100 = 100% disease control, 0 = no disease control) (Rhizoctonia solani) [%] | Test B rating (100 = 100% disease control, 0 = no disease control) (Alternaria solani; 200 ppm test suspension) [%] | Test B rating (100 = 100% disease control, 0 = no disease control) (Alternaria solani; 40 ppm test suspension (asterisk)) | pest or weed control at 200 ppm ([1]; Puccinia recondita, 168 h, read-out: Test H rating (100 = 100% disease control, 0 = no disease control)) [%] | pest or weed control at 200 ppm (Botrytis cinerea; Botrytis cinerea, 120 h, read-out: Test A rating (100 = 100% disease control, 0 = no disease control)) [%] | pest or weed control at 200 ppm ([3]; Puccinia recondita, 96 h, read-out: Test G rating (100 = 100% disease control, 0 = no disease control)) [%] | pest or weed control at 200 ppm ([2]; Blumeria graminis, 168 h, read-out: Test I rating (100 = 100% disease control, 0 = no disease control)) [%] | pest or weed control at 200 ppm (Septoria tritici; Zymoseptoria tritici, 504 h, read-out: Test F rating (100 = 100% disease control, 0 = no disease control)) [%] | pest or weed control at 200 ppm (Septoria nodorum; Parastagonospora nodorum, 264 h, read-out: Test E rating (100 = 100% disease control, 0 = no disease control)) [%] | pest or weed control at 200 ppm (Alternaria solani; Alternaria solani, 168 h, 200 ppm test suspension, read-out: Test B rating (100 = 100% disease control, 0 = no disease control)) [%] | Test G rating (100 = 100% disease control, 0 = no disease control) [3] [%] | Test F rating (100 = 100% disease control, 0 = no disease control) (Septoria tritici) [%] |
| --- | --- | --- | --- | --- | --- | --- | --- | --- | --- | --- | --- | --- | --- | --- | --- | --- | --- |
| Cc1noc(=O)c(-c2ccc(F)cc2Cl)c1-c1ccc(Br)cc1 [Compound 14] | 0 | 0 | 0 | 0 | 0 | 0 | 5 |  |  |  |  |  |  |  |  |  |  |
| Cc1noc(=O)c(-c2c(F)cccc2F)c1-c1ccc(Br)cc1 [Compound 15] | 91 | 0 | 0 | 98 | 0 | 0 | 96 |  |  |  |  |  |  |  |  |  |  |
| Cc1noc(=O)c(-c2c(F)cc(F)cc2F)c1-c1cccc(F)c1 [Compound 5] | 0 | 0 | 0 | 20 | 0 | 16 | 54 |  |  |  |  |  |  |  |  |  |  |
| Cc1noc(=O)c(-c2c(F)cc(F)cc2F)c1-c1ccc(C(F)(F)F)cc1 [Compound 12] | 0 | 0 | 0 | 98 | 0 | 0 |  | 99* % |  |  |  |  |  |  |  |  |  |
| Cc1noc(=O)c(-c2ccc(F)cc2F)c1-c1ccc(Cl)cc1 [Compound 13] | 91 | 0 | 0 | 99 | 0 | 0 | 9 |  |  |  |  |  |  |  |  |  |  |
| Cc1ccc(-c2c(C)noc(=O)c2-c2c(F)cc(F)cc2F)cc1 [Compound 9] | 96 | 90 | 0 | 96 | 0 | 99 | 46 |  |  |  |  |  |  |  |  |  |  |
| Cc1noc(=O)c(-c2c(F)cccc2Cl)c1-c1ccc(Cl)cc1 [Compound 8] | 98 | 100 | 0 | 99 | 0 | 52 | 99 |  |  |  |  |  |  |  |  |  |  |
| COc1cc(OC)c(Cl)c(-c2c(-c3ccc(F)cc3Cl)c(C)oc(=O)c2C)c1 [Compound 54, 4-(2-chloro-3,5-dimethoxyphenyl)-5-(2-chloro-4-fluorophenyl)-3,6-dimethyl-2H-pyran-2-one] |  |  |  |  |  |  |  |  | 100 | 100 | 99 | 100 | 100 | 100 | 96 |  |  |
| COc1cc(OC)c(Cl)c(-c2c(-c3c(F)cccc3F)c(C)oc(=O)c2C)c1Cl [Compound 53] | 88 | 61 |  | 0 | 0 |  | 0 |  |  |  |  |  |  |  |  | 0 | 47 |
